US4912223A, “1,4-Dihydropyridines” (Nelson Research & Development Co., priority 1988, dated 1990)
Where a name gives a salt, the structure may show the parent alone.

Columns and labels:
[1] = target: T1, DHP Site of the Calcium Channel (Oryctolagus cuniculus, UniProt P07293); assay: Binding Assay for Drugs Acting at the DHP Site of the Calcium Channel (3H-nitrendipine displacement); conditions: washed rabbit skeletal muscle membranes, 0.5×10^-9 M 3H-nitrendipine, 30 min, 25° C., pH 7.4
T1 construct: Washed rabbit skeletal muscle membranes (fraction 2-8X); from tissue; host or cells: rabbit skeletal muscle membranes (fraction 2-8X)
T1 sequence (P07293 1-1664 limits assumed): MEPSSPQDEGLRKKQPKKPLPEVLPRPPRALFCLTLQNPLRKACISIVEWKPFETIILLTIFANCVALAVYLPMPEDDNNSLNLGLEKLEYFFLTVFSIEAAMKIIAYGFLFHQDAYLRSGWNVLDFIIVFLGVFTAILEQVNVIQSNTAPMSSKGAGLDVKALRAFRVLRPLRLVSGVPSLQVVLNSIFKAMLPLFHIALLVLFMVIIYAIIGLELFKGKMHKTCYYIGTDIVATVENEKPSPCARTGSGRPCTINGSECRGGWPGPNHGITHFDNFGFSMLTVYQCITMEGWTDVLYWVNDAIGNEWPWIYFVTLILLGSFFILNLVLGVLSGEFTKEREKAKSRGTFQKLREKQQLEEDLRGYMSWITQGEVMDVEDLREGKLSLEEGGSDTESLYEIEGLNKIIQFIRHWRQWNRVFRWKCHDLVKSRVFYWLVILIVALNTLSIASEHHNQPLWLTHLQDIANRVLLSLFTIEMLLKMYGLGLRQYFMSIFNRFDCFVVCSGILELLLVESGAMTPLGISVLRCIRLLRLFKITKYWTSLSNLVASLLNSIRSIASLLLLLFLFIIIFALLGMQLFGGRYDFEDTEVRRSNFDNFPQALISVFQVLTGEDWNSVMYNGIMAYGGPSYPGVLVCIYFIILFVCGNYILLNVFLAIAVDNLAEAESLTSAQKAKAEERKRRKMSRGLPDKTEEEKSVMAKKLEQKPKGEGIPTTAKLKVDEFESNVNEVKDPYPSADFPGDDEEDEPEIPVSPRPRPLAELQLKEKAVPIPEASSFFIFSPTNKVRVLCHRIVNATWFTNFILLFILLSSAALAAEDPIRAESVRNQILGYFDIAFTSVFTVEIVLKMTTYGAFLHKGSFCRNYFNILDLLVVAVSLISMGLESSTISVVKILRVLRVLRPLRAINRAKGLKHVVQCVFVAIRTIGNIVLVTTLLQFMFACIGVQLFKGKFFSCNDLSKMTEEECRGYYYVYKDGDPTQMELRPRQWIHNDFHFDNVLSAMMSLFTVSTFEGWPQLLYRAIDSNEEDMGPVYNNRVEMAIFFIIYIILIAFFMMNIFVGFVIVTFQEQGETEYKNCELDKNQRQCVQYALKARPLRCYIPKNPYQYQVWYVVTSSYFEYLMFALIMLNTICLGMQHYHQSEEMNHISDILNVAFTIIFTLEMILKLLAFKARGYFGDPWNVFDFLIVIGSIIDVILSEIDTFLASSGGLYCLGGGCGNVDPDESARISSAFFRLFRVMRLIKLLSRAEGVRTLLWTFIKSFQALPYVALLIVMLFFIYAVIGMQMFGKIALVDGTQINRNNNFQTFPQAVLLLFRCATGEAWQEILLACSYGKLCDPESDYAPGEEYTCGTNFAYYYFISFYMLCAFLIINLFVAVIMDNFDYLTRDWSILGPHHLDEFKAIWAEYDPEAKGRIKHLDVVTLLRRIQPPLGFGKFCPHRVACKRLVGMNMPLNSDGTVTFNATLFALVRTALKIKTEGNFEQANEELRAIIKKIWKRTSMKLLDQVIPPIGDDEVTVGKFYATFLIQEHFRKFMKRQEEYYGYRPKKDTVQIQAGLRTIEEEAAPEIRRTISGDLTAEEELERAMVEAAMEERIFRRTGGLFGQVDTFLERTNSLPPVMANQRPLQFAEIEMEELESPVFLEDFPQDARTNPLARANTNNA
T1 sequence (P13806 27-960 partner limits assumed): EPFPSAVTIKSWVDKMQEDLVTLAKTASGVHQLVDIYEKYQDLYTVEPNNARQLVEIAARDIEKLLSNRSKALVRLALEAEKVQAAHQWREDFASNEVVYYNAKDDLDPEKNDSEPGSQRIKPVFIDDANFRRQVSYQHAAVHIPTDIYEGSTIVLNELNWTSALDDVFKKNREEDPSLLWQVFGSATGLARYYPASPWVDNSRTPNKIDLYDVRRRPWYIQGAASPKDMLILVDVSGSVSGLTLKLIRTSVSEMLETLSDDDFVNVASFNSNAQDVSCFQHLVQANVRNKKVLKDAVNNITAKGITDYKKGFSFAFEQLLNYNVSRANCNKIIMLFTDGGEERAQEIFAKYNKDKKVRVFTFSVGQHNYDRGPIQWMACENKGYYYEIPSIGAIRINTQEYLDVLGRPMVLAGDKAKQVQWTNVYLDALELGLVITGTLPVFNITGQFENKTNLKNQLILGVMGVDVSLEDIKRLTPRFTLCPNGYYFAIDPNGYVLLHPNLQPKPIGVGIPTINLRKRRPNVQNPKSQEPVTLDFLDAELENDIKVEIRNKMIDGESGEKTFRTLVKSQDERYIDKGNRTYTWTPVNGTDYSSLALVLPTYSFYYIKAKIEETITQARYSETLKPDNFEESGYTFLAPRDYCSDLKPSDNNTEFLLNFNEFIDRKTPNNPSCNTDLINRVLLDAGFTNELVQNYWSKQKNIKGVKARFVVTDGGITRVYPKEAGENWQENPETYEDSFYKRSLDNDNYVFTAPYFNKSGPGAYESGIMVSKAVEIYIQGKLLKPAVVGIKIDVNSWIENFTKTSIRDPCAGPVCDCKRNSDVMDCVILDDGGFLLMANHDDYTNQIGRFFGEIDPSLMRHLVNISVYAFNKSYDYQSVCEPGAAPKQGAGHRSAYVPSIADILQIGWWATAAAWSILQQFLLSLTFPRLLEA
T1 sequence (P13806 961-1106 partner limits assumed): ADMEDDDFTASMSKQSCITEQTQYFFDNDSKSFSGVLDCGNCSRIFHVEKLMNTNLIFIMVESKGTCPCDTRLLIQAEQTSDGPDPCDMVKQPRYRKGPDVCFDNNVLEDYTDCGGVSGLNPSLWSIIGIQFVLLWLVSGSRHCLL
T1 sequence (P19517 whole entry partner): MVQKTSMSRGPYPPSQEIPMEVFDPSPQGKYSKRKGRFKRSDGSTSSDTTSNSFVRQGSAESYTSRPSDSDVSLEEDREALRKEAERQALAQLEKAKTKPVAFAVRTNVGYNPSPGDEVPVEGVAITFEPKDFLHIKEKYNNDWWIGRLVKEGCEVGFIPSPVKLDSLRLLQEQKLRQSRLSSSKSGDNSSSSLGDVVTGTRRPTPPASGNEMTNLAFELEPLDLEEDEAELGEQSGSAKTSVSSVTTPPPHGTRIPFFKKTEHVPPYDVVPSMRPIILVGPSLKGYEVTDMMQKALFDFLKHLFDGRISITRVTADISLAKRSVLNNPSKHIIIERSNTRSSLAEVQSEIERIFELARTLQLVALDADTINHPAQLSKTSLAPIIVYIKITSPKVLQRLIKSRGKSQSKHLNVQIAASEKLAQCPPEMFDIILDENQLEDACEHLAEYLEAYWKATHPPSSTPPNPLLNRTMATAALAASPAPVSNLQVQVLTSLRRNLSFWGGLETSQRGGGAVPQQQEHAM
T1 sequence (P19518 whole entry partner): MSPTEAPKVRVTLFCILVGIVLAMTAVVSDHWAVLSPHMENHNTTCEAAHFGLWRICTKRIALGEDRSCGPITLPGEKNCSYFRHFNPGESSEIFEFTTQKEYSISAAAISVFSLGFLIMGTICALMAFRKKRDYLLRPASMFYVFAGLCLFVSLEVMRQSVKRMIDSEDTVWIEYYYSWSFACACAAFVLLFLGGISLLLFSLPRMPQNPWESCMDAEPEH
Procedure: The incubation tubes were rapidly chilled in ice and the contents filtered through Whatman GF/B filters on a Millipore manifold, and the filters were placed in scintillation counting vials with 8 ml of Cytoscint cocktail, disrupted mechanically by shaking for 30 minutes and counted.
Drugs which interact at the DHP site will reduce this specific binding in a dose-dependent manner. The assays for the compounds of this invention were made with logarithmically spaced concentrations, the data were plotted on a probit-concentration plot, and the IC50 read off. The KI of the drug was calculated by standard techniques.

[2] = system: Systolic arterial blood pressure; assay: Hypotensive Activity (oral), indirect tail cuff method in spontaneous hypertensive rats (SHR); type: in vivo, spontaneous hypertensive rates (SHR); conditions: 10 mmol/Kg in polyethylene glycol
Procedure: Systolic arterial blood pressure was measured with the indirect tail cuff method in spontaneous hypertensive rates (SHR). The change in baseline pressure (170-210 mm Hg) was recorded at various time points following oral administration of 10 mmol/Kg of the test compound in polyethylene glycol.

[3] = Water solubility of salt (dissolution in aqueous NaOH, freeze-dried); type: physicochemical
Procedure: A suspension of 50 mg (0.099 mmol) of the product of Example 2C in 30 ml of water and 1.0 ml (0.099 ) of 0.1N NaOH was stirred at ambient temperature for 15 hours.
All material was dissolved at this time. The mixture was freeze-dried to give 50 mg (quantitative yield) of a foamy water soluble solid: m.p. 215°-220° C.
A suspension of 50 mg (0.076 mmol) of the product of Example 6 in 30 ml of water and 1.52 ml (0.152 mmol) of 0.1N NaOH was stirred at ambient temperature for 15 hours. The material was totally dissolved at this time. The mixture was freeze dried to give 50 mg (quantitative yield) of a foamy water-soluble solid: m.p. 225°-232° C.

| SMILES | Ki [1] [nM] | Mean Change (Decrease) in Systolic Blood Pressure, 120 min after drug administration [2] [mm Hg] | Mean Change (Decrease) in Systolic Blood Pressure, 240 min after drug administration [2] [mm Hg] | Mean Change (Decrease) in Systolic Blood Pressure, 360 min after drug administration [2] [mm Hg] | Mean Change (Decrease) in Systolic Blood Pressure, 12 min after drug administration [2] [mm Hg] | Mean Change (Decrease) in Systolic Blood Pressure, 30 min after drug administration [2] [mm Hg] | Mean Change (Decrease) in Systolic Blood Pressure, 60 min after drug administration [2] [mm Hg] | solubility in water (in words) [3] |
| --- | --- | --- | --- | --- | --- | --- | --- | --- |
| COC(=O)C1=C(C)NC(C)=C(C(=O)OCC2COC(C)(C)O2)C1c1cccc([N+](=O)[O-])c1 (stereo not drawn) [Example 1B, 2,6-Dimethyl-3-(2,2-dimethyl-1,3-dioxolan-4-carbomethoxy)-4-(3-nitrophenyl)-5-carbomethoxy-1,4 dihydropyridine] | 4.5 | 36 | 34 | 19 |  |  |  |  |
| COC(=O)C1=C(C)NC(C)=C(C(=O)OCC2OC(=O)C3OC(C)(C)OC23)C1c1cccc([N+](=O)[O-])c1 (stereo not drawn) [Example 2C, 2,6-Dimethyl-3-(carboriboxy-gamma-lactone dimethylketal)-4-(3-nitrophenyl)-5-carbomethoxy-1,4-dihydropyridine] | 30 | 29 | 22 | 20 | 40 | 37 | 31 |  |
| COC(=O)C1=C(C)NC(C)=C(C(=O)OCC(O)CO)C1c1cccc([N+](=O)[O-])c1 (stereo not drawn) [Example 4, 2,6-Dimethyl-5-carbomethoxy-4-(3-nitrophenyl)-3-(2,3 dihydroxycarbopropoxy)-1,4-dihydropyridine] | 140 | 12 | 6 | 4 | 13 | 16 | 18 |  |
| COC(=O)C1=C(C)NC(C)=C(C(=O)OCC2COC3(CCCC3)O2)C1c1cccc([N+](=O)[O-])c1 (stereo not drawn) [Example 4B, 2,6-Dimethyl-5-carbomethoxy-4-(3-nitrophenyl)-3-(1,4-dioxaspiro[4,4]non-2-yl-carbomethoxy)-1,4-dihydropyridine] | 2.3 | 17 | 23 | 27 |  |  |  |  |
| CC1=C(C(=O)OCC2COC(C)(C)O2)C(c2cccc([N+](=O)[O-])c2)C(C(=O)OCC2COC(C)(C)O2)=C(C)N1 (stereo not drawn) [Example 5, 2,6-Dimethyl-3,5-di-(2,2-dimethyl-1,3-dioxolan-4-carbomethoxy)-4-(3-nitrophenyl)-1,4-dihydropyridine] | 29 | 17 | 19 | 19 | 17 | 19 | 13 |  |
| CC1=C(C(=O)OCC2OC(=O)C3OC(C)(C)OC23)C(c2cccc([N+](=O)[O-])c2)C(C(=O)OCC2OC(=O)C3OC(C)(C)OC23)=C(C)N1 (stereo not drawn) [Example 6, 2,6-Dimethyl-3,5-di(carboriboxy-gamma-lactone dimethylketal)-4-(3-nitrophenyl)-1,4-dihydropyridine] | 93 |  |  |  |  |  |  |  |
| COC(=O)C1=C(C)NC(C)=C(C(=O)OCC(O)C2OC(C)(C)OC2C(=O)O)C1c1cccc([N+](=O)[O-])c1 (stereo not drawn) [Example 11, 2,6-Dimethyl-3-(carboribonic acid-gamma-lactone dimethylketal)(3-nitrophenyl)-5-(carbomethoxy)-1,4-dihydropyridine, sodium salt] |  |  |  |  |  |  |  | water soluble |
| CC1=C(C(=O)OCC(O)C2OC(C)(C)OC2C(=O)O)C(c2cccc([N+](=O)[O-])c2)C(C(=O)OCC(O)C2OC(C)(C)OC2C(=O)O)=C(C)N1 (stereo not drawn) [Example 13, 2,6-Dimethyl-3,5-di-(carboribonic acid-gamma-lactone dimethylketal)-4-(3-nitrophenyl-1,4-dihydropyridine, disodium salt] |  |  |  |  |  |  |  | water-soluble |
| COC(=O)C1=C(C)NC(C)=C(C(=O)OC)C1c1ccccc1[N+](=O)[O-] [Nifedipine, nifedipine, reference compound] |  | 11 |  |  | 6 | 36 | 20 |  |
